Measured values published in PMC10518717, “High-Throughput Screening and Proteomic Characterization of Compounds Targeting Myeloid-Derived Suppressor Cells” (Molecular & Cellular Proteomics : MCP, 2023).

What was measured:
NUP-MDSC = experiment: Global proteome expression profiling of compound-treated NUP-MDSC (TMT LC-MS/MS); type: cell-based, mouse; settings: 72 h; for log2 FC ENT_300/DMSO: 300 nM
Method: After treatments, medium was removed, cells were washed twice with PBS, and the cell pellets were further subjected to proteomic sample preparation.
The cell pellet was reconstituted in 2% SDS in 50 mM Tris–HCl pH 7.5 and lysed by heating to 95 °C for 10 min. One microliter of 100% TFA was added to each sample to hydrolyze DNA, and the pH was subsequently adjusted to 8.5 with 3 M Tris solution. Disulfide bonds were reduced with 10 mM DTT for 45 min at 37 °C, followed by alkylation of cysteines with 55 mM CAA for 30 min at room temperature. Prior to tryptic digestion, the detergent was removed from lysates by SP3 cleanup on an Agilent BRAVO system (Agilent Technologies), following the protocol first described by Hughes et al. ([34]). Briefly, lysate containing 200 μg of protein was mixed with SP3 beads, and proteins were precipitated onto a 50:50 mixture of Sera-Mag Speed Bead types A and B (Thermo Fisher Scientific) in 58% acetonitrile. Beads were washed three times with 80% ethanol in water and once with acetonitrile. Tryptic digest was performed in 100 μl of digestion buffer (2 mM CaCl2 in 25 mM Hepes, pH 8.5) with a 1:50 enzyme-to-protein ratio. Bead-precipitated proteins were digested at 37 °C overnight. On the next day, the supernatant of each sample was transferred to a new well and vacuum dried.
Dried peptides were reconstituted in water and labeled with the respective TMT10plex-labeling reagent as described previously ([35]) with a protein to tandem mass tag (TMT) reagent ratio of 1:2. Labeled samples were pooled, vacuum dried, and reconstituted in 0.1% formic acid (FA) prior to desalting on SepPAC50 columns (waters corp.). Peptides were fractionated using a Dionex Ultra 3000 HPLC system with a Waters XBridge BEH130 C18 3.5 um 2.1 × 250 mm column as described previously ([36]). Ninety-six fractions were collected and pooled to 48. For the full proteome analysis, one fifth of each fraction was transferred to a new 96-well plate and both plates were vacuum dried. For the phosphopeptide analysis, dried peptides were reconstituted in 55 μl 0.1% TFA in 30% ACN, pooled from 48 to 12 fractions, and mixed with 70 μl priming buffer (0.1% TFA, 100% ACN). Phosphopeptides were enriched from each of the 12 fractions using Fe(III)-IMAC-NTA cartridges on the AssayMAP BRAVO (Agilent Technologies) platform as described previously ([36]). Phosphopeptides were eluted with 60 μl 1% ammonia, vacuum dried, and stored at −20 °C prior to LC-MS/MS analysis.
The Fusion Lumos was operated in data-dependent acquisition and positive ionization mode. Samples were measured employing a MS3 method. In brief, full scan MS1 spectra were recorded in the orbitrap (OT) from 360 to 1560 m/z at 60,000 resolution using an automatic gain control (AGC) target value of 4e5 charges and a maximum injection time (maxIT) of 50 ms. Iontrap-MS2 spectra for peptide identification were acquired using higher energy collision dissociation (HCD) fragmentation with 32% normalized collision energy (NCE), an isolation window of 0.6 m/z, and an AGC target value of 1.2e4 charges. To obtain quantitative information on TMT reporter ions, each peptide precursor was fragmented again as for MS2 analysis followed by synchronous selection of the up to eight most intense peptide fragments in the iontrap ([37]) and further fragmentation via HCD using a NCE of 55%. The MS3 scan was recorded in the OT at 50,000 resolution (scan range 100–1000 m/z, isolation window of 1.2 m/z, AGC of 1e5 charges, maxIT of 86 ms). The cycle time was 1.2 s, and the dynamic exclusion lasted for 50 s.
Peptide, protein, and phosphorylation site identification and quantification were performed with MaxQuant software (v. 1.6.3.3, https://www.maxquant.org/) with standard settings for reporter ion MS3 unless described otherwise ([39]). Isotope impurities of the TMT lot were specified to allow MaxQuant the automated correction of TMT intensities. […]

NUP-MDSC cell lysate [1] = experiment: Chemoproteomic competition pulldown assay (iCor/iEnt affinity matrix), proteome-wide; type: binding, mouse; settings: NUP-MDSC lysate; iCor and iEnt
Description: (§1) Targets of the inhibitors were annotated manually.

NUP-MDSC cell lysate [2] = target: T1, NUP-MDSC cell lysate (Mus musculus, UniProt G5E8Z3); experiment: as above; type: binding; settings: protein 2310050C09Rik (G5E8Z3)
T1 construct: endogenous in cells; host or cells: mouse NUP-MDSC (lysate)
T1 sequence (G5E8Z3 1-280): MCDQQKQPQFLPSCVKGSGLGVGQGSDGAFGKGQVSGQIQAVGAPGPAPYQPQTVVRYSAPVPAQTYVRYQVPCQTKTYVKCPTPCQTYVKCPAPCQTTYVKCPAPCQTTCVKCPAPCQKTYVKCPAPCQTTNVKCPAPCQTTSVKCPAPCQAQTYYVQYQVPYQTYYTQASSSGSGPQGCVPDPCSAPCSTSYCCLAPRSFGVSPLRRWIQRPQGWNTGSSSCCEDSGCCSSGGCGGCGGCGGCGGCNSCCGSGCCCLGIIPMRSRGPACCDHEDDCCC
Description: as §1

NUP-MDSC cell lysate [3] = target: T2, NUP-MDSC cell lysate (Mus musculus, UniProt Q8WUR0); experiment: as above; type: binding; settings: protein 1600014C10Rik (Protein C19orf12 homolog)
T2 construct: endogenous in cells; host or cells: mouse NUP-MDSC (lysate)
T2 sequence (Q8WUR0 1-141): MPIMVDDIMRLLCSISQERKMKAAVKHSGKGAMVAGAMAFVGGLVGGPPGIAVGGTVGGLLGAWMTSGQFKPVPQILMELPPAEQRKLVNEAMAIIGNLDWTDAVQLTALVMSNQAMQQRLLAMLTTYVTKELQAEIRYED
Description: as §1

[4] = system: HDAC1/2 and the CoREST complex; settings: NUP-MDSC lysate; competition with iCor pulldown
Method: In vitro–differentiated NUP-MDSC were harvested, washed twice with PBS, and cell pellets were stored at −80 °C. For lysis, the pellets were slowly thawed at 20 °C and mixed with lysis buffer (0.8% Igepal, 50 mM Tris–HCl pH 7.5, 5% glycerol, 1.5 mM MgCl2, 150 mM NaCl, 1 mM Na3VO4, 25 mM NaF, 1 mM DTT, and supplemented with protease inhibitors (SigmaFast, Sigma) and phosphatase inhibitors (prepared in-house according to phosphatase inhibitor cocktail 1, 2, and 3 from Sigma-Aldrich)). Before usage, the cell lysates were cleared from debris by ultracentrifugation (52,000×g for 20 min at 4 °C); protein concentration was determined by Bradford assay. […]
Peptides were analyzed via LC-MS/MS on a Dionex Ultimate3000 nano HPLC coupled to an Orbitrap Fusion Lumos mass spectrometer (Thermo Fisher Scientific). […]
The mass spectrometer was operated in data-dependent mode, automatically switching between MS1 and MS2 spectra. […] Up to 12 peptide precursors were isolated (isolation width of 1.2 Th, maxIT of 75 ms, AGC value of 2e5), fragmented by HCD using 30% NCE, and analyzed in the OT at a resolution of 15,000. […]
Protein identification and quantification was performed using MaxQuant (v 1.6.1.0) by searching the LC-MS/MS data against all canonical protein sequences as annotated in the Swissprot reference database (v03.12.15, 20,193 entries, downloaded 22.03.2016) using the embedded search engine Andromeda. […]

- Intensity 3nM (NUP-MDSC cell lysate [2]; Entinostat 3nM): 4673000
- LFQ intensity 3nM (NUP-MDSC cell lysate [2]; Entinostat 3nM): 0
- Intensity 10nM (NUP-MDSC cell lysate [2]; Entinostat 10nM): 39076000
- LFQ intensity 10nM (NUP-MDSC cell lysate [2]; Entinostat 10nM): 48940000
- Intensity 30nM (NUP-MDSC cell lysate [2]; Entinostat 30nM): 0
- LFQ intensity 30nM (NUP-MDSC cell lysate [2]; Entinostat 30nM): 0
- Intensity 100nM (NUP-MDSC cell lysate [2]; Entinostat 100nM): 0
- LFQ intensity 100nM (NUP-MDSC cell lysate [2]; Entinostat 100nM): 0
- Intensity 300nM (NUP-MDSC cell lysate [2]; Entinostat 300nM): 63615000
- LFQ intensity 300nM (NUP-MDSC cell lysate [2]; Entinostat 300nM): 92239000
- Intensity 1000nM (NUP-MDSC cell lysate [2]; Entinostat 1000nM): 0
- LFQ intensity 1000nM (NUP-MDSC cell lysate [2]; Entinostat 1000nM): 0
- Intensity 3000nM (NUP-MDSC cell lysate [2]; Entinostat 3000nM): 17259000
- LFQ intensity 3000nM (NUP-MDSC cell lysate [2]; Entinostat 3000nM): 18337000
- Intensity 30000nM (NUP-MDSC cell lysate [2]; Entinostat 30000nM): 37204000
- LFQ intensity 30000nM (NUP-MDSC cell lysate [2]; Entinostat 30000nM): 38240000
- Intensity 3nM (NUP-MDSC cell lysate [3]; Entinostat 3nM): 20883000
- LFQ intensity 3nM (NUP-MDSC cell lysate [3]; Entinostat 3nM): 42321000
- Intensity 10nM (NUP-MDSC cell lysate [3]; Entinostat 10nM): 34795000
- LFQ intensity 10nM (NUP-MDSC cell lysate [3]; Entinostat 10nM): 40587000
- Intensity 30nM (NUP-MDSC cell lysate [3]; Entinostat 30nM): 27408000
- LFQ intensity 30nM (NUP-MDSC cell lysate [3]; Entinostat 30nM): 39634000
- Intensity 100nM (NUP-MDSC cell lysate [3]; Entinostat 100nM): 29285000
- LFQ intensity 100nM (NUP-MDSC cell lysate [3]; Entinostat 100nM): 35458000
- Intensity 300nM (NUP-MDSC cell lysate [3]; Entinostat 300nM): 23203000
- LFQ intensity 300nM (NUP-MDSC cell lysate [3]; Entinostat 300nM): 36056000
- Intensity 1000nM (NUP-MDSC cell lysate [3]; Entinostat 1000nM): 28303000
- LFQ intensity 1000nM (NUP-MDSC cell lysate [3]; Entinostat 1000nM): 37293000
- Intensity 3000nM (NUP-MDSC cell lysate [3]; Entinostat 3000nM): 35943000
- LFQ intensity 3000nM (NUP-MDSC cell lysate [3]; Entinostat 3000nM): 42228000
- Intensity 30000nM (NUP-MDSC cell lysate [3]; Entinostat 30000nM): 27116000
- LFQ intensity 30000nM (NUP-MDSC cell lysate [3]; Entinostat 30000nM): 26320000
Structure (SMILES): Nc1ccccc1NC(=O)c1ccc(CNC(=O)OCc2cccnc2)cc1 [entinostat]
- protein expression of Il1a, Il1b, and Il1rn (NUP-MDSC; 30 and 300 nM): dose-dependently upregulated
- protein level of Cxcr3, Ccl9, and Ccr5 (NUP-MDSC; 30 and 300 nM, dose-dependent manner): increased
- log2 FC ENT_300/DMSO (NUP-MDSC; protein Cask): -0.505
- log2 FC ENT_300/DMSO (NUP-MDSC; protein Hsf1): -0.1449
- log2 FC ENT_300/DMSO (NUP-MDSC; protein Inpp5j): 0.4672
- log2 FC ENT_300/DMSO (NUP-MDSC; protein Magohb;Magoh): 0.03399
- additional targets identified (NUP-MDSC cell lysate [1]): No additional targets
- target affinity [4]: high affinities
